Reference: PubChem BioAssay AID2060901 (Molecular Pharmacology Branch, DTP, NCI, 2025)

Test system: 422866-222-R5-J1-PDC complex spheroids viability
Test: Anticancer human tumor 422866-222-R5-J1-PDC patient-derived pancreatic adenocarcinoma cell line growth inhibition [RAS]
Details: for IC50: curve of first compound; for viability, T/C: stronger effect = lower value
Procedure, shortened: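 Agents were tested in combination matrices in half-log decrements from a top concentration at or near clinical Cmax (10 microM if undetermined). Targets were multi-cell spheroids of tumour lines plus HUVEC and MSC stromal cells.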

[1] = second compound 0.000949 µM, first compound 0.0316 µM
[2] = second compound 0.000949 µM, first compound 0.1 µM
[3] = second compound 0.000949 µM, first compound 0.316 µM
[4] = second compound 0.000949 µM, first compound 1 µM
[5] = second compound 0.000949 µM, first compound 3.16 µM
[6] = second compound 0.000949 µM, first compound 10 µM
[7] = second compound 0.003 µM, first compound 0.0316 µM
[8] = second compound 0.003 µM, first compound 0.1 µM
[9] = second compound 0.003 µM, first compound 0.316 µM
[10] = second compound 0.003 µM, first compound 1 µM
[11] = second compound 0.003 µM, first compound 3.16 µM
[12] = second compound 0.003 µM, first compound 10 µM
[13] = second compound 0.00949 µM, first compound 0.0316 µM
[14] = second compound 0.00949 µM, first compound 0.1 µM
[15] = second compound 0.00949 µM, first compound 0.316 µM
[16] = second compound 0.00949 µM, first compound 1 µM
[17] = second compound 0.00949 µM, first compound 3.16 µM
[18] = second compound 0.00949 µM, first compound 10 µM
[19] = second compound 0.03 µM, first compound 0.0316 µM
[20] = second compound 0.03 µM, first compound 0.1 µM
[21] = second compound 0.03 µM, first compound 0.316 µM
[22] = second compound 0.03 µM, first compound 1 µM
[23] = second compound 0.03 µM, first compound 3.16 µM
[24] = second compound 0.03 µM, first compound 10 µM
[25] = second compound 0.0949 µM, first compound 0.0316 µM
[26] = second compound 0.0949 µM, first compound 0.1 µM
[27] = second compound 0.0949 µM, first compound 0.316 µM
[28] = second compound 0.0949 µM, first compound 1 µM
[29] = second compound 0.0949 µM, first compound 3.16 µM
[30] = second compound 0.0949 µM, first compound 10 µM
[31] = second compound 0.3 µM, first compound 0.0316 µM
[32] = second compound 0.3 µM, first compound 0.1 µM
[33] = second compound 0.3 µM, first compound 0.316 µM
[34] = second compound 0.3 µM, first compound 1 µM
[35] = second compound 0.3 µM, first compound 3.16 µM
[36] = second compound 0.3 µM, first compound 10 µM
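Note: spheroids exposed to compounds for 7 days.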
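Throughout, for viability, T/C: 100% = DMSO vehicle control viability.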

CC(Nc1ccc2c(c1)OCCn1cc(N3C(=O)OCC3C(F)F)nc1-2)C(N)=O (centres undefined) + CCn1c(-c2cccnc2C(C)OC)c2c3cc(ccc31)N1CCOC(CC(NC(=O)C(C(C)C)N(C)C(=O)C3(F)CCN(C(=O)C#CC(C)(C)N(C)C)CC3)C(=O)N3CCCC(N3)C(=O)OCC(C)(C)C2)C1
IC50 (second compound 0.000949 µM): < 31.6 nM | IC50 (second compound 0.003 µM): < 31.6 nM | IC50 (second compound 0.00949 µM): < 31.6 nM | IC50 (second compound 0.03 µM): < 31.6 nM | IC50 (second compound 0.0949 µM): < 31.6 nM | IC50 (second compound 0.3 µM): < 31.6 nM | viability, T/C [1]: 18.2% | viability, T/C [2]: 15.9% | viability, T/C [3]: 10.3% | viability, T/C [4]: 9.14% | viability, T/C [5]: 26.9% | viability, T/C [6]: 6.64% | viability, T/C [7]: 14.5% | viability, T/C [8]: 11.7% | viability, T/C [9]: 9.43% | viability, T/C [10]: 9.79% | viability, T/C [11]: 19.8% | viability, T/C [12]: 5.92% | viability, T/C [13]: 14.6% | viability, T/C [14]: 11.4% | viability, T/C [15]: 9.65% | viability, T/C [16]: 6.24% | viability, T/C [17]: 17.5% | viability, T/C [18]: 5.13% | viability, T/C [19]: 12.7% | viability, T/C [20]: 10.8% | viability, T/C [21]: 8.08% | viability, T/C [22]: 5.84% | viability, T/C [23]: 16.7% | viability, T/C [24]: 4.66% | viability, T/C [25]: 13.7% | viability, T/C [26]: 9.18% | viability, T/C [27]: 8.36% | viability, T/C [28]: 5.71% | viability, T/C [29]: 17.2% | viability, T/C [30]: 3.5% | viability, T/C [31]: 10.9% | viability, T/C [32]: 8.1% | viability, T/C [33]: 5.84% | viability, T/C [34]: 3.47% | viability, T/C [35]: 10% | viability, T/C [36]: 2.74%

CCC(CC)c1cc(NC2CCC(N)C2)n2nccc2n1 (centres undefined) + CCn1c(-c2cc(N3CCN(C)CC3)cnc2C(C)OC)c2c3cc(ccc31)-c1csc(n1)CC(NC(=O)C1CC1C)C(=O)N1CCCC(N1)C(=O)OCC(C)(C)C2
IC50 (second compound 0.000949 µM): < 31.6 nM | IC50 (second compound 0.003 µM): < 31.6 nM | IC50 (second compound 0.00949 µM): < 31.6 nM | IC50 (second compound 0.03 µM): < 31.6 nM | IC50 (second compound 0.0949 µM): < 31.6 nM | IC50 (second compound 0.3 µM): < 31.6 nM | viability, T/C [1]: 36.1% | viability, T/C [2]: 34.6% | viability, T/C [3]: 36.9% | viability, T/C [4]: 38.4% | viability, T/C [5]: 15.5% | viability, T/C [6]: 51.6% | viability, T/C [7]: 22.1% | viability, T/C [8]: 24.1% | viability, T/C [9]: 24.7% | viability, T/C [10]: 27.2% | viability, T/C [11]: 15.2% | viability, T/C [12]: 50.2% | viability, T/C [13]: 23.4% | viability, T/C [14]: 24.7% | viability, T/C [15]: 23.6% | viability, T/C [16]: 25.8% | viability, T/C [17]: 17.8% | viability, T/C [18]: 46.1% | viability, T/C [19]: 20.7% | viability, T/C [20]: 20.4% | viability, T/C [21]: 24.9% | viability, T/C [22]: 27.7% | viability, T/C [23]: 17.4% | viability, T/C [24]: 57.6% | viability, T/C [25]: 21.6% | viability, T/C [26]: 22.1% | viability, T/C [27]: 26.9% | viability, T/C [28]: 32.8% | viability, T/C [29]: 18.4% | viability, T/C [30]: 49.6% | viability, T/C [31]: 22.4% | viability, T/C [32]: 22.3% | viability, T/C [33]: 25.7% | viability, T/C [34]: 32.3% | viability, T/C [35]: 22.3% | viability, T/C [36]: 51.4%
